In patent publication US20130101628A1 (NORTHWESTERN UNIVERSITY, priority 2011, published 2013):
* marks the point of attachment. Palmitoyl = CCCCCCCCCCCCCCCC(=O)*

Key:
[1] = molecular target: T1, VEGF receptor 2 (VEGFR2 or KDR) (Homo sapiens, UniProt P35968); assay: Sandwich ELISA of phosphorylated VEGFR2 in lysates of stimulated HUVEC; format: cell-based
T1 construct: host or cells: HUVEC
Experimental: Human umbilical vein endothelial cells (HUVECs) and complete endothelial cell growth media (EGM) were purchased (Genlantis, San Diego, Calif.), passaged two times following receipt, and cryo-preserved in media with 5% DMSO. Cells were thawed as needed and grown to confluence in a […] flasks (VWR Falcon) prior to plating for experiments.
Phosphorylation of both VEGFRI and VEGFR2 was assayed using commercially available assay kit (R&D Systems, Minneapolis, Minn.) following the recommended protocol. First, confluent HUVECs plated in 24 well plates were starved for 5 hours in serum-free defined media (SFDM, Genlantis) specifically designed to maintain cells in a growth factor-free setting for growth factor signaling and metabolic assays. Following starvation, the various treatments were dissolved in SFDM to a concentration of 1 μM. […] Cells were exposed to treatment for 2 minutes. To evaluate the time-course of phosphorylation the same protocol was followed and cells were exposed to VEGF-PA for 0, 1, 3, 5, 10, 15, 20, 25, 30, 40, 50, and 60 minutes.

ischemic hind-limb = assay: Murine hind-limb ischemia (HLI) model; format: in vivo, mice; settings: for limb motor function score / tissue (limb) salvage score: single i.m. injection 25 μl of 2 mM; for limb motor function score: grade 1-5; for tissue (limb) salvage score: grade 1-6
Experimental: For the HLI procedure, eight week old male FVB wild-type mice (Charles River) were anesthetized by intraperitoneal injection of avertin (125 mg/kg). By means of a dissecting microscope, the femoral nerve was carefully separated from the vessel bundle. The right femoral artery was ligated and excised, including all superficial and deep branches. Critical limb ischemia was immediately verified by laser Doppler imaging (LDPI, MoorLDI-SIM, Moor Instruments, Ltd) to ensure the ratio (ischemic/non-ischemic limb) was ≦0.20. At postoperative day 3, outliers with low ischemia were triaged based on LDPI (ratio ischemic/nonischemic 0.30) as were outliers with extreme ischemia (necrotic demarcation of entire limb), determined by macroscopic evaluation. […] For follow-up, animals underwent reevaluations with LDPI at postoperative day 7, 14, and 28 before animals were sacrificed (CO, asphyxia) for tissue harvest at day 28. At each time-point, tissue perfusion was measured via LDPI, measuring blood flow in both the ischemic and non-ischemic limb and reporting results as the ratio of these two measurements. All LDPI measurements were taken on a 37° C. heating pad to control body temperature. In addition, motor function and tissue damage was semi-quantitatively assessed on post-operative day 7, 14, 21 and 28 by established scoring systems. Tissue damage in the ischemic limb (limb salvage score) was graded as full recovery (grade 6), minor necrosis or nail loss (grade 5), partial toe amputation (grade 4), total toe amputation (grade 3), partial/total foot amputation (grade 2) or partial/total limb amputation (grade 1) (modified from). Limb motor function was graded as unrestricted (grade 5), no active use of toe(s) or spreading (grade 4), restricted foot use (grade 3), no use of foot (grade 2) or no use of limb at all (grade 1) (modified from). Finally, walking capacity was measured via a Rota Rod apparatus. […] The mean of two assessments was used as for failure time for each animal. At day 28, muscle tissue from the ischemic limb was harvested, fixed in methanol, paraffin-embedded, and cross-sectioned (6-μm) for histological immunostaining. Briefly, sections were blocked with 10% donkey serum (30 min, RT). Primary antibodies were diluted in PBS containing BSA, and applied to tissue slices for 2 hrs at 37° C. Sections were stained for CD31, an endothelial-specific marker, using rat anti-CD31 antibodies (BD Pharmingen Inc) and smooth-muscle α-actin (αSMA), a vascular smooth muscle marker, using rabbit-anti-αSMA (Sigma-Aldrich Co.). For immunofluorescent detection, primary antibodies were resolved with Alexa-Fluor-conjugated secondary antibodies (Invitrogen Corporation, Carlsbad, Calif., USA dilution) and nuclei were counterstained with DAPI (Research Organics). Slides were imaged using fluorescent microscopy (Zeiss), and CD31+capillary forms and CD31+/sMA+]mature microvessels/arterioles were quantified in 3 separate high-power fields (20×) from 3 independent sections in each animal (9 images/animal). All error bars indicate the standard error of the mean. Differences between groups were determined using a one-way analysis of variance (ANOVA) with a Bonferroni multiple comparisons post-hoc test using GraphPad InStat v3.0b. […] VEGF-PA or control treatments were administered by an intramuscular injection three days following the induction of critical ischemia by ligation and excision of the right femoral artery and all superficial and deep branches, as described above. Animals were assessed serially throughout the study for motor function and limb salvage and Laser Doppler perfusion imaging (LDPI) was used to assess tissue perfusion. At the end of the study, exercise endurance was recorded on a Rota Rod treadmill and tissue was harvested for immunohistological staining of capillaries to observe effects on the microcirculation.

T1 sequence (P35968 20-1356): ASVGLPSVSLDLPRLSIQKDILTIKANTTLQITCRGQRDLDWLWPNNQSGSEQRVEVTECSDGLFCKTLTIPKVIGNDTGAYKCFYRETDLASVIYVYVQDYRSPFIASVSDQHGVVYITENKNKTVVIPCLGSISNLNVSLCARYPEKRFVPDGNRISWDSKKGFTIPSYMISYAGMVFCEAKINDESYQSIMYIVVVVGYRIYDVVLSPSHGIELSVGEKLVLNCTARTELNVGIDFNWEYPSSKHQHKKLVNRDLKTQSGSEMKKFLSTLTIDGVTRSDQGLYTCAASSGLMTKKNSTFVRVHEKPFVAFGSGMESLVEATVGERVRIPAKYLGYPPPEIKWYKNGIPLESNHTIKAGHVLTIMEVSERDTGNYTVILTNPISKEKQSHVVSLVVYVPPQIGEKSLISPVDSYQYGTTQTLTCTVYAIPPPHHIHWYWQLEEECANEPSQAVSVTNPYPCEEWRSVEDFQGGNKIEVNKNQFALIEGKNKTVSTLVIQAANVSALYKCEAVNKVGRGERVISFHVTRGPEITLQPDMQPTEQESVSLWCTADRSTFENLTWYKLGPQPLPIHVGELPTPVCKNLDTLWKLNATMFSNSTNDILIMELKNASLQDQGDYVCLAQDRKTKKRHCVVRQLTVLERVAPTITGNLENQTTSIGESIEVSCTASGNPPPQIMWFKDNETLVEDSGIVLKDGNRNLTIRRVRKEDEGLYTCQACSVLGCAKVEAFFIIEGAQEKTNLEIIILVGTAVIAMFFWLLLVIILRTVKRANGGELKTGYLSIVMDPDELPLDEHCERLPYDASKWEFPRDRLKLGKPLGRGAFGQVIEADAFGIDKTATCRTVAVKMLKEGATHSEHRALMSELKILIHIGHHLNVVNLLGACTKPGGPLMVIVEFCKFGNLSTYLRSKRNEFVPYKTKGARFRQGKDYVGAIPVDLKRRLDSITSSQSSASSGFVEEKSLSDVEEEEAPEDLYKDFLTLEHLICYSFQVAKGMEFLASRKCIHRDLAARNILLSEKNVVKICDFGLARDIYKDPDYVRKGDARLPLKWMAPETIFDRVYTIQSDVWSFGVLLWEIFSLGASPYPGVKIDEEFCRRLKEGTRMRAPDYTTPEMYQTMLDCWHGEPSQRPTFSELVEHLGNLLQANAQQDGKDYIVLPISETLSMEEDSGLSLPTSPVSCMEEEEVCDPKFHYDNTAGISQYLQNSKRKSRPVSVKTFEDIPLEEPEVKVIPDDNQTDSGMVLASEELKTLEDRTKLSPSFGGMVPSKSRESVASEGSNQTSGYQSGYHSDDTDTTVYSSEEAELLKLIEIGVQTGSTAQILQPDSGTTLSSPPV

Question: Which results are given for “CH3(CH2)14C(O)— VVAAKKKGKLTWQELYQLKYKGI-NH2 (Palmitoyl-VVAAKKKGKLTWQELYQLKYKGI-NH2; SMILES CCCCCCCCCCCCCCCC(=O)N[C@H](C(=O)N[C@H](C(=O)N[C@@H](C)C(=O)N[C@@H](C)C(=O)N[C@@H](CCCCN)C(=O)N[C@@H](CCCCN)C(=O)N[C@@H](CCCCN)C(=O)NCC(=O)N[C@@H](CCCCN)C(=O)N[C@@H](CC(C)C)C(=O)N[C@H](C(=O)N[C@@H](Cc1c[nH]c2ccccc12)C(=O)N[C@@H](CCC(N)=O)C(=O)N[C@@H](CCC(=O)O)C(=O)N[C@@H](CC(C)C)C(=O)N[C@@H](Cc1ccc(O)cc1)C(=O)N[C@@H](CCC(N)=O)C(=O)N[C@@H](CC(C)C)C(=O)N[C@@H](CCCCN)C(=O)N[C@@H](Cc1ccc(O)cc1)C(=O)N[C@@H](CCCCN)C(=O)NCC(=O)N[C@H](C(N)=O)[C@@H](C)CC)[C@@H](C)O)C(C)C)C(C)C) [VEGF-PA]”?
Answer: time of stimulation at which phosphorylated VEGFR2 begins to decrease after initial rise ([1]; HUVEC time-course 0-60 minutes, falls below untreated baseline): 10 min; VEGFR2 phosphorylation level relative to untreated control ([1]; HUVEC, 1 μM, 2 minutes exposure, untreated control 1.000±0.109): 1.581±0.050; LDPI perfusion ratio (ischemic/non-ischemic limb) (ischemic hind-limb; 14 days after induction of ischemia): 0.76±0.05; limb motor function score (ischemic hind-limb; day 21): 3.89±0.12; tissue (limb) salvage score (ischemic hind-limb; day 21): 4.21±0.21; LDPI perfusion ratio (ischemic/non-ischemic limb) (ischemic hind-limb; day 28): 0.72±0.05; Rota Rod walking time prior to failure (ischemic hind-limb; day 28, saline 90.4 seconds): 150.5 ± 9.5 s; limb motor function score (ischemic hind-limb; day 28): 4.21±0.16; tissue (limb) salvage score (ischemic hind-limb; day 28): 4.21±0.21; effect on the number of CD31+/smooth muscle actin+ arterioles (ischemic hind-limb; tissue harvested at day 28): no effect; number of CD31+ capillaries in ischemic limb muscle (ischemic hind-limb; tissue harvested at day 28, saline 893/mm2): 1582±76 /mm2
